US20080248511A1, “METHODS TO QUENCH LIGHT FROM OPTICAL REACTIONS” (priority 2007, published 2008)

Assays:
Renilla luciferase = biological target: T1, Renilla luciferase (Renilla reniformis, UniProt P27652); test: Non-detergent compound screen, Renilla luciferase (Example 6); assay type: biochemical; settings: for remaining activity at 10 µM / remaining activity at 100 µM / remaining activity at 1000 µM / Retained Renilla Luciferase Value (%) / remaining activity at 23 µM / remaining activity at 153 µM: 0.5% Tergitol NP-9, 0.03% BDDABr; for remaining activity at 10 µM / remaining activity at 100 µM / remaining activity at 1000 µM / remaining activity at 23 µM / remaining activity at 153 µM: read-out: Retained Renilla Luciferase Value (%)
T1 sequence (P27652 1-311): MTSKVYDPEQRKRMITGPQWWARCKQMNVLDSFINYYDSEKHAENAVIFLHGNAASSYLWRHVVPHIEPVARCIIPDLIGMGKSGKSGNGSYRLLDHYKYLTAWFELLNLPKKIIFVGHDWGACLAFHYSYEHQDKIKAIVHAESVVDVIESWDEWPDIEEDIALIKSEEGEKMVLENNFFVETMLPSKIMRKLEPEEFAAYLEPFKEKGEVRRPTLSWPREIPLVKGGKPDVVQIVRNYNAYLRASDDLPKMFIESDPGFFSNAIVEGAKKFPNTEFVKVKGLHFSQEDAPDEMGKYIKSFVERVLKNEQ
Experimental: (§1) Each compound was diluted into 200 mM MOPS pH 6.7, 4 μM MgSO4, 1 mM CDTA, 0.5% Tergitol NP-9, 0.05% Mazu-DF-204, 0.03% BDDABr, 30 mM thiourea, 1 mM bis-(2-mercaptoethylsulfone) (BMS), 4 μM CoA, and 1 μM 5-fluoroluciferin. Just prior to the luciferase reaction, 0.1% Prionex® (Pentapharm) and 2.9 μM coelenterazine-h (Promega) were added to each solution.
(§2) The firefly luciferase and Renilla luciferase enzymes were diluted as described in Examples 3 and 5. The luciferase reactions were initiated by adding 50 μl of the firefly luciferase and Renilla luciferase enzyme solution to 50 μl of reagent solution. The reactions were performed as described above. The retained Renilla and firefly luciferase-mediated luminescence and selectivity values for each inhibitor tested are listed in Table 6.

firefly luciferase = firefly luciferase (Photinus pyralis, UniProt P08659); test: Non-detergent compound screen, firefly luciferase (Example 6); assay type: biochemical; settings: 0.5% Tergitol NP-9, 0.03% BDDABr; for remaining activity at 10 µM / remaining activity at 100 µM / remaining activity at 1000 µM / remaining activity at 23 µM / remaining activity at 153 µM: read-out: Retained Firefly Luciferase Value (%); for remaining activity at 23 µM: inhibitor 23 μM; for remaining activity at 153 µM: inhibitor 153 μM
Experimental: as §1, §2

Sequence of firefly luciferase (P08659 whole entry): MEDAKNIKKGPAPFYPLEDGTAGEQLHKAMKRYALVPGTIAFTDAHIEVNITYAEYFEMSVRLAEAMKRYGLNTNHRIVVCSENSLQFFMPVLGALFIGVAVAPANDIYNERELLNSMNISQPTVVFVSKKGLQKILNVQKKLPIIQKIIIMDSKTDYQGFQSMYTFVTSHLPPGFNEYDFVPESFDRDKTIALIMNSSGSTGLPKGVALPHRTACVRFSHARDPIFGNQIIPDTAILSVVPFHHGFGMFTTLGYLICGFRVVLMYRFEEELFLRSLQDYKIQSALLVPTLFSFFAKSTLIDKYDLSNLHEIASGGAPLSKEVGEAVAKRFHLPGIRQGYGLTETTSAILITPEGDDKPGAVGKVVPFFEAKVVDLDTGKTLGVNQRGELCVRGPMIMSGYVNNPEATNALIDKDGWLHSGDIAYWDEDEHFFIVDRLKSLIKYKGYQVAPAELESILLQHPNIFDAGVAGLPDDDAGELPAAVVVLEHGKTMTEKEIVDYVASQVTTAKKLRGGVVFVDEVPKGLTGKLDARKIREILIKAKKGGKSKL

Compound | inhibitor of Renilla luciferase, grade in words (Renilla luciferase) | Selectivity Value (Renilla luciferase; inhibitor 10 μM) | remaining activity at 10 µM (Renilla luciferase; inhibitor 10 μM) [%] | Selectivity Value (Renilla luciferase; inhibitor 100 μM) | remaining activity at 100 µM (Renilla luciferase; inhibitor 100 μM) [%] | Selectivity Value (Renilla luciferase; inhibitor 1000 μM) | remaining activity at 1000 µM (Renilla luciferase; inhibitor 1000 μM) [%] | remaining activity at 10 µM (firefly luciferase; inhibitor 10 μM) [%] | remaining activity at 100 µM (firefly luciferase; inhibitor 100 μM) [%] | remaining activity at 1000 µM (firefly luciferase; inhibitor 1000 μM) [%] | also measured
CN(C)CCc1c[nH]c2ccc(/C=C/C(=O)NCc3ccc([N+](=O)[O-])cc3)cc12 [Compound 3063, (E)-3-(3-(2-(dimethylamino)ethyl)-1H-indol-5-yl)-N-(4-nitrobenzyl)acrylamide] | excellent inhibitors of Renilla luciferase | 1.6 | 63 | 5.4 | 19 | 33 | 3.1 | 102 | 102 | 102 | –
CCCCCC[N+](C)(C)CCc1c[nH]c2ccc(/C=C/C(=O)NCc3ccc(OC)cc3)cc12.[I-] [Compound 3078, (E)-N-(2-(5-(3-(4-methoxybenzylamino)-3-oxyprop-1-enyl)-1H-indol-3-yl)ethyl)-N,N-dimethylhexan-1-aminium iodide] | – | 20 | – | 100 | – | 990 | – | – | – | – | Retained Renilla Luciferase Value (%) (Renilla luciferase; inhibitor 10 μM): 5.0%; Retained Renilla Luciferase Value (%) (Renilla luciferase; inhibitor 100 μM): 1.0%; Retained Renilla Luciferase Value (%) (Renilla luciferase; inhibitor 1000 μM): 0.1%; Retained Firefly Luciferase Value (%) (firefly luciferase; inhibitor 10 μM): 100%; Retained Firefly Luciferase Value (%) (firefly luciferase; inhibitor 100 μM): 100%; Retained Firefly Luciferase Value (%) (firefly luciferase; inhibitor 1000 μM): 99%
C=C(C(=O)NCc1ccc(OC)cc1)c1ccc2oc(=O)cc(C)c2c1 [Compound 3058, N-(4-methoxybenzyl)-2-(4-methyl-2-oxo-2H-chromen-6-yl)acrylamide] | suitable inhibitors of Renilla luciferase | – | – | – | – | 1.04 | 98.8 | – | – | 103 | Selectivity Value (Renilla luciferase; inhibitor 23 μM): 1.05; remaining activity at 23 µM (Renilla luciferase; inhibitor 23 μM): 96%; Selectivity Value (Renilla luciferase; inhibitor 153 μM): 1.04; remaining activity at 153 µM (Renilla luciferase; inhibitor 153 μM): 98%; remaining activity at 23 µM (firefly luciferase): 101%; remaining activity at 153 µM (firefly luciferase): 102%
CCCCCCNC(=O)/C=C/c1ccc2[nH]cc(CCN(C)C)c2c1 [Compound 3050, (E)-3-(3-(2-(dimethylamino)ethyl)-1H-indol-5-yl)-N-hexylacrylamide] | suitable inhibitors of Renilla luciferase | – | – | – | – | 1.9 | 55 | – | – | 102 | Selectivity Value (Renilla luciferase; inhibitor 23 μM): 1.1; remaining activity at 23 µM (Renilla luciferase; inhibitor 23 μM): 93%; Selectivity Value (Renilla luciferase; inhibitor 153 μM): 1.0; remaining activity at 153 µM (Renilla luciferase; inhibitor 153 μM): 99%; remaining activity at 23 µM (firefly luciferase): 102%; remaining activity at 153 µM (firefly luciferase): 102%
COc1ccc(CCNC(=O)/C=C/c2ccc3[nH]cc(CCN(C)C)c3c2)cc1 [Compound 3062, (E)-3-(3-(2-(dimethylamino)ethyl)-1H-indol-5-yl)-N-(4-methoxyphenethyl)acrylamide] | excellent inhibitors of Renilla luciferase | 1.4 | 74 | 3.3 | 30 | 19.4 | 5.1 | 100 | 98 | 99 | –
COc1ccc(COC(=O)/C=C/c2ccc3[nH]cc(CCN(C)C)c3c2)cc1 [Compound 3045, (E)-4-methoxybenzyl 3-(3-(2-(dimethylamino)ethyl)-1H-indol-5-yl)acrylate] | suitable inhibitors of Renilla luciferase | – | – | – | – | 1.3 | 74.7 | – | – | 98 | Selectivity Value (Renilla luciferase; inhibitor 23 μM): 1.0; remaining activity at 23 µM (Renilla luciferase; inhibitor 23 μM): 97%; Selectivity Value (Renilla luciferase; inhibitor 153 μM): 1.0; remaining activity at 153 µM (Renilla luciferase; inhibitor 153 μM): 98%; remaining activity at 23 µM (firefly luciferase): 100%; remaining activity at 153 µM (firefly luciferase): 100%
COc1ccc(CNC(=O)/C=C/c2ccc3[nH]cc(CCCN(C)C)c3c2)cc1 [Compound 3071, (E)-3-(3-(3-(dimethylamino)propyl)-1H-indol-5-yl)-N-(4-methoxybenzyl)acrylamide] | excellent inhibitors of Renilla luciferase | 1.8 | 57 | 6.7 | 15 | 40 | 2.5 | 101 | 101 | 100 | –
COc1cc(OC)c(CNC(=O)/C=C/c2ccc3[nH]cc(CCN(C)C)c3c2)c(OC)c1 [Compound 3073, (E)-3-(3-(2-(dimethylamino)ethyl)-1H-indol-5-yl)-N-(2,4,6-trimethoxybenzyl)acrylamide] | inhibitors of Renilla luciferase | 0.99 | 102 | 1.5 | 87 | 2.9 | 34.5 | 101 | 100 | 101 | –
CN(C)CCc1c[nH]c2ccc(/C=C/C(=O)N3CCOCC3)cc12 [Compound 3064, (E)-3-(3-(2-(dimethylamino)ethyl)-1H-indol-5-yl)-1-morpholinoprop-2-en-1-one] | excellent inhibitors of Renilla luciferase | 1.3 | 81 | 2.9 | 35 | 11.4 | 9 | 102 | 101 | 103 | –
COc1ccc(CNC(=O)/C=C/c2ccc3[nH]cc(CCN(C)C)c3c2)c(OC)c1 [Compound 3051, (E)-N-(2,4-dimethoxybenzyl)-3-(3-(2-(dimethylamino)ethyl)-1H-indol-5-yl)acrylamide] | excellent inhibitors of Renilla luciferase | 1.9 | 55 | 7.3 | 14 | 53.7 | 1.9 | 102 | 102 | 102 | –
COc1ccc(CNC(=O)/C(C#N)=C/c2ccc3[nH]cc(CCN(C)C)c3c2)cc1 [Compound 3044, (E)-2-cyano-3-(3-(2-(dimethylamino)ethyl)-1H-indol-5-yl)-N-(4-methoxybenzyl)acrylamide] | inhibitors of Renilla luciferase | 1.2 | 85 | 2.8 | 36 | 18.9 | 7.6 | 99 | 100 | 132 | –
C=C(C(=O)NCc1ccc(OC)cc1)c1ccc2[nH]ccc2c1 [Compound 3054, 2-(1H-indol-5-yl)-N-(4-methoxybenzyl)acrylamide] | suitable inhibitors of Renilla luciferase | – | – | – | – | 1.1 | 93.3 | – | – | 101 | Selectivity Value (Renilla luciferase; inhibitor 23 μM): 1.1; remaining activity at 23 µM (Renilla luciferase; inhibitor 23 μM): 95%; Selectivity Value (Renilla luciferase; inhibitor 153 μM): 1.1; remaining activity at 153 µM (Renilla luciferase; inhibitor 153 μM): 95%; remaining activity at 23 µM (firefly luciferase): 101%; remaining activity at 153 µM (firefly luciferase): 102%
CN(C)CCc1c[nH]c2ccc(/C=C/C(=O)NCc3ccc(N(C)C)cc3)cc12 [Compound 3043, (E)-N-(4-(dimethylamino)benzyl)-3-(3-(2-(dimethylamino)ethyl)-1H-indol-5-yl)acrylamide] | excellent inhibitors of Renilla luciferase | – | – | – | – | – | – | – | – | – | –
COc1ccc(CNC(=O)/C=C/c2ccc3c(c2)c(CCN(C)C)cn3C)cc1 [Compound 3049, (E)-3-(3-(2-(dimethylamino)ethyl)-1-methyl-1H-indol-5-yl)-N-(4-methoxybenzyl)acrylamide] | excellent inhibitors of Renilla luciferase | – | – | – | – | – | – | – | – | – | –
